Source: patent publication US7119229B2 (priority 2001, dated 2006)
Where two headings read alike, the source gives them in different places.

How the values were obtained:
ICR mice [1] = assay: Oral administration toxicity assay; conditions: for Days for the test (death) Total: deaths/mice; for Days for the Test (death) 4: day 4
[2] = system: WP2 uvrA strains (tryptophan auxotrophic strains); assay: Reverse mutation assay (Ames test), E. coli WP2 uvrA
Description: (§1) This assay is carried out to test mutagenicity of chemical substances using histidine auxotrophic strains that are one of Salmonella Typhimurium mutants. […] When various mutagens are added to the culture medium, only revertants generated by reverse mutation survive.
(§2) Ames test was carried out using […]. […] After incubation, the number of revertant colonies was counted. 3 plates were prepared for each test and the average was calculated.

ICR mice [3] = assay: Acute (intravenous administration) toxicity assay; conditions: for Days for the test (death) 2: day 2; for Days for the test (death) Total: deaths/mice; for Days for the test (death) 1: day 1
TA1537 = assay: Reverse mutation assay (Ames test), TA1537
Description: as §1, §2

TA98 = system: TA98
Description: as §1, §2

TA100 = system: TA100
Description: as §1, §2

TA1535 = conditions: TA1525 (so in the source)
Description: as §1, §2

[4] = system: BALB/c mouse spleen cell (responding) and DBA/2 mouse spleen cell (stimulating); type: cell-based
Description: MLR tests were carried out to determine the immunosuppressive effect of an immunosuppressive candidate material. When a responding cell (BALB/c mouse spleen cell) and a stimulating cell (DBA/2 mouse spleen cell) were cultured separately, the cells grew little. On the contrary, when the cells were simultaneously cultured, the cells were proliferated due to induction of an antigen-antibody reaction. The proliferated cells were treated with the immunosuppressive candidate material for measurement of the proliferation inhibitory extent.
After culturing for 72 hours at a CO2 incubator, a 20 μl MTS solution was added to each well, followed by further culturing for 2 to 4 hours and measuring OD at […] by using ELISA.

SKOV-3 (human ovarian) = assay: SRB cytotoxicity assay, SK-OV-3; type: cell-based; conditions: 72 hours, read-out: ED50 SK-OV-3
Description: (§3) Human tumor cells, including MCF-7 (human breast adenomatous tumor), MCF-7/DOX (adriamycin resistant cell strain), MRS-SA (human uterine sarcoma), MES-SA/DX5 (adriamycin resistant cell strain), A 549 (human non-small cell lung), SKOV-3 (human ovarian), SKMEL-2 (human melanoma), XF-498 (human CNS), HCT-15 (human colon) were incubated at 37° C. in the presence of 5% CO2 using a DMEM culture medium. The respective cells were seeded into each well of 96-well plates at a concentration of 2×10^3˜5×10^3 cells/well. […] Each cell line of the resultant plates was fixed with trichloroacetic acid (TCA), stained with 0.4% SRB solution and rinsed with 1% acetic acid. Thereafter, the dye was dissolved in 10 mM Tris base to measure the optical density (OD) at 520 nm.

[5] = system: MCF-7 (human breast adenomatous tumor); assay: SRB cytotoxicity assay, MCF7; type: cell-based; conditions: MCF7, SRB, 72 hours, read-out: ED50 MCF7
Description: as §3

[6] = system: MCF-7/DOX (adriamycin resistant cell strain); assay: SRB cytotoxicity assay, MCF-7/DOX; type: cell-based; conditions: Homo sapiens, MCF7-DOX; SRB, 72 hours; read-out: ED50 MCF-7/DOX
Description: as §3

[7] = system: MES-SA/DX5 (adriamycin resistant cell strain); assay: SRB cytotoxicity assay, MES-SA/DX5; type: cell-based; conditions: Homo sapiens, MES-SA/Dx5; SRB, 72 hours; read-out: ED50 MES-SA/DX5
Description: as §3

HCT-15 (human colon) = assay: SRB cytotoxicity assay, HCT15; type: cell-based; conditions: HCT-15, SRB, 72 hours, read-out: ED50 HCT15
Description: as §3

[8] = system: A 549 (human non-small cell lung); assay: SRB cytotoxicity assay, A549; type: cell-based; conditions: A549, SRB, 72 hours, read-out: ED50 A549
Description: as §3

XF-498 (human CNS) = assay: SRB cytotoxicity assay, XF498; type: cell-based; conditions: 72 hours, read-out: ED50 XF498
Description: as §3

[9] = system: MES-SA (human uterine sarcoma); assay: SRB cytotoxicity assay, MES-SA; type: cell-based; conditions: SRB, 72 hours, read-out: ED50 MES-SA
Description: as §3

SKMEL-2 (human melanoma) = assay: SRB cytotoxicity assay, SK-MEL-2; type: cell-based; conditions: SK-MEL-2, SRB, 72 hours, read-out: ED50 SK-MEL-2
Description: as §3

## COc1cc2c(c(OC)c1OC)-c1ccc(OC)c(=O)cc1[C@@H](NC(C)=O)CC2 [Colchicine]
ICR mice [1]; 5 mg/kg
  Days for the test (death) Total: 0/5
ICR mice [1]; 10 mg/kg
  Days for the test (death) Total: 0/5
ICR mice [1]; 25 mg/kg, day 3
  Days for the Test (death) 3: 3
ICR mice [1]; 25 mg/kg
  Days for the Test (death) 4: 1
  Days for the test (death) Total: 4/5
ICR mice [1]; 50 mg/kg, day 2
  Days for the test (death) 2: 3
ICR mice [1]; 50 mg/kg
  Days for the Test (death) 4: 1
  Days for the test (death) Total: 5/5
ICR mice [1]; 50 mg/kg, day 5
  Days for the Test (death) 5: 1
[2]; 317.5 μg/Plate
  Colony/Plate S-9 Mixture (+): 11 Colony/Plate
  Colony/Plate S-9 Mixture (−): 10 Colony/Plate
[2]; 625 μg/Plate
  Colony/Plate S-9 Mixture (+): 14 Colony/Plate
  Colony/Plate S-9 Mixture (−): 6 Colony/Plate
[2]; 1250 μg/Plate
  Colony/Plate S-9 Mixture (+): 14 Colony/Plate
  Colony/Plate S-9 Mixture (−): 11 Colony/Plate
[2]; 2500 μg/Plate
  Colony/Plate S-9 Mixture (+): 12 Colony/Plate
  Colony/Plate S-9 Mixture (−): 10 Colony/Plate
[2]; 5000 μg/Plate
  Colony/Plate S-9 Mixture (+): 8 Colony/Plate
  Colony/Plate S-9 Mixture (−): 11 Colony/Plate
ICR mice [3]; 2 mg/kg
  Days for the test (death) 2: 3
  Days for the test (death) Total: 5/5
ICR mice [3]; 2 mg/kg, day 3
  Days for the Test (death) 3: 1
ICR mice [3]; 2 mg/kg, day 6
  Days for the test (death) 6: 1
ICR mice [3]; 5 mg/kg
  Days for the test (death) 1: 1
  Days for the test (death) 2: 4
  Days for the test (death) Total: 5/5
ICR mice [3]; 10 mg/kg
  Days for the test (death) 1: 4
  Days for the test (death) 2: 1
  Days for the test (death) Total: 5/5
TA1537; TA1537, 317.5 μg/Plate
  Colony/Plate S-9 Mixture (+): 20 Colony/Plate
  Colony/Plate S-9 Mixture (−): 17 Colony/Plate
TA1537; TA1537, 625 μg/Plate
  Colony/Plate S-9 Mixture (+): 18 Colony/Plate
  Colony/Plate S-9 Mixture (−): 14 Colony/Plate
TA1537; TA1537, 1250 μg/Plate
  Colony/Plate S-9 Mixture (+): 18 Colony/Plate
  Colony/Plate S-9 Mixture (−): 10 Colony/Plate
TA1537; TA1537, 2500 μg/Plate
  Colony/Plate S-9 Mixture (+): 21 Colony/Plate
  Colony/Plate S-9 Mixture (−): 8 Colony/Plate
TA1537; TA1537, 5000 μg/Plate
  Colony/Plate S-9 Mixture (+): 21 Colony/Plate
  Colony/Plate S-9 Mixture (−): 9 Colony/Plate
TA98; TA98, 317.5 μg/Plate
  Colony/Plate S-9 Mixture (+): 37 Colony/Plate
  Colony/Plate S-9 Mixture (−): 29 Colony/Plate
TA98; TA98, 625 μg/Plate
  Colony/Plate S-9 Mixture (+): 32 Colony/Plate
  Colony/Plate S-9 Mixture (−): 29 Colony/Plate
TA98; TA98, 1250 μg/Plate
  Colony/Plate S-9 Mixture (+): 33 Colony/Plate
  Colony/Plate S-9 Mixture (−): 29 Colony/Plate
TA98; TA98, 2500 μg/Plate
  Colony/Plate S-9 Mixture (+): 37 Colony/Plate
  Colony/Plate S-9 Mixture (−): 24 Colony/Plate
TA98; TA98, 5000 μg/Plate
  Colony/Plate S-9 Mixture (+): 28 Colony/Plate
  Colony/Plate S-9 Mixture (−): 26 Colony/Plate
TA100; TA100, 317.5 μg/Plate
  Colony/Plate S-9 Mixture (+): 79 Colony/Plate
  Colony/Plate S-9 Mixture (−): 115 Colony/Plate
TA100; TA100, 625 μg/Plate
  Colony/Plate S-9 Mixture (+): 76 Colony/Plate
  Colony/Plate S-9 Mixture (−): 110 Colony/Plate
TA100; TA100, 1250 μg/Plate
  Colony/Plate S-9 Mixture (+): 100 Colony/Plate
  Colony/Plate S-9 Mixture (−): 112 Colony/Plate
TA100; TA100, 2500 μg/Plate
  Colony/Plate S-9 Mixture (+): 91 Colony/Plate
  Colony/Plate S-9 Mixture (−): 115 Colony/Plate
TA100; TA100, 5000 μg/Plate
  Colony/Plate S-9 Mixture (+): 78 Colony/Plate
  Colony/Plate S-9 Mixture (−): 108 Colony/Plate
TA1535; 317.5 μg/Plate
  Colony/Plate S-9 Mixture (+): 13 Colony/Plate
  Colony/Plate S-9 Mixture (−): 18 Colony/Plate
TA1535; 625 μg/Plate
  Colony/Plate S-9 Mixture (+): 13 Colony/Plate
  Colony/Plate S-9 Mixture (−): 15 Colony/Plate
TA1535; 1250 μg/Plate
  Colony/Plate S-9 Mixture (+): 7 Colony/Plate
  Colony/Plate S-9 Mixture (−): 17 Colony/Plate
TA1535; 2500 μg/Plate
  Colony/Plate S-9 Mixture (+): 12 Colony/Plate
  Colony/Plate S-9 Mixture (−): 17 Colony/Plate
TA1535; 5000 μg/Plate
  Colony/Plate S-9 Mixture (+): 10 Colony/Plate
  Colony/Plate S-9 Mixture (−): 13 Colony/Plate

## COc1cc2c(c(OC)c1OC)-c1ccc(SC)c(=O)cc1[C@@H](NC(=O)c1cccc(CCl)c1)CC2 [Compound 9]
[4]
  immunosuppressive effect: good immunosuppressive effect

## COc1cc2c(c(OC)c1OC)-c1ccc(S(C)(=O)=O)c(=O)cc1C(NC(=O)CCCO[N+](=O)[O-])CC2 (stereo not drawn) [Compound 10, 4-nitrooxy-N-(1,2,3-trimethoxy-10-methylsulfonyl-9-oxo-5,6,7,9-tetrahydro-benzo[a]heptarene-7-yl)-butylamide]
[4]; MLR, FIG. 1
  immunosuppressive effect: good immunosuppressive effect

## COc1cc2c(c(OC)c1OC)-c1ccc(SC)c(=O)cc1[C@@H](NC(=O)c1ccc(CO[N+](=O)[O-])cc1)CC2 [Compound 11]
[4]
  immunosuppressive effect: good immunosuppressive effect

## CC(=O)O[C@H]1C(=O)[C@@]2(C)[C@H]([C@H](OC(=O)c3ccccc3)[C@]3(O)C[C@H](OC(=O)[C@H](O)[C@@H](NC(=O)c4ccccc4)c4ccccc4)C(C)=C1C3(C)C)[C@]1(OC(C)=O)CO[C@@H]1C[C@@H]2O [Taxol, reference compound]
SKOV-3 (human ovarian)
  EC50: 1.2 nM
[5]
  EC50: 0.04 nM
[6]
  EC50: 943 nM
[7]
  EC50: 1150 nM
HCT-15 (human colon)
  EC50: 0.1 nM
[8]
  EC50: 0.3 nM
XF-498 (human CNS)
  EC50: 1.7 nM
[9]
  EC50: 0.02 nM
SKMEL-2 (human melanoma)
  EC50: 0.1 nM
